This note sets out measurements from ChEMBL document CHEMBL1150077, “Phospholipase D inhibitors from a Myrsine species” (J Nat Prod, 1995).

Structures are written as SMILES.

Assay [1] is described as follows: Inhibition of fMLP-stimulated phospholipase D in human HL60 cells. Type of assay: cell-based. The conditions noted are these: hl-60.
Assay [2] in a line: Inhibition of PMA-stimulated phospholipase D in human HL60 cells. Type of assay: cell-based. The conditions noted are these: hl-60.

`C[C@H]1O[C@@H](O[C@H]2[C@H](O[C@H]3CO[C@@H](O[C@H]4CC[C@]5(C)[C@H]6CC[C@]78OC[C@@]9(CCC(C)(C)C[C@H]97)[C@H](O)C[C@@]8(C)[C@]6(C)CC[C@H]5C4(C)C)[C@H](O[C@@H]4O[C@H](CO)[C@@H](O)[C@H](O)[C@H]4O)[C@H]3O)O[C@H](CO)[C@@H](O)[C@@H]2O)[C@@H](O)[C@@H](O)[C@@H]1O`: the IC50 in assay [1] was 24 µM; in assay [2], 2 µM.
As for `CC1(C)CC[C@]23CO[C@@]4(CC[C@@H]5[C@@]6(C)CC[C@H](O[C@@H]7OC[C@H](O[C@@H]8O[C@H](CO)[C@@H](O)[C@H](O)[C@H]8O[C@@H]8OC[C@@H](O)[C@H](O)[C@H]8O)[C@H](O)[C@H]7O[C@@H]7O[C@H](CO)[C@@H](O)[C@H](O)[C@H]7O)C(C)(C)[C@@H]6CC[C@@]5(C)[C@]4(C)C[C@H]2O)[C@@H]3C1` [LYSIKOKIANOSIDE 1], the IC50 in assay [1] worked out at 8 µM; in assay [2] it was 3 µM.

In general, IC50 refers to the concentration that inhibits the measured activity by half. A lower IC50 goes with higher potency.
